From patent publication US4085134A, “Amino-phosphonic-sulfonic acids” (Petrolite Corporation, priority 1974, dated 1978)
Counter-ions that a name gives are not always drawn.

Legend:
[1] = Calcium Scale Inhibition Test; conditions: 180° F, samples at 2 and 4 hour periods
Method: Calcium Scale Inhibition Test
The procedure utilized to determine the effectiveness of scale inhibitors in regard to calcium scale is as follows:
Several 50 ml. samples of a 0.04 sodium bicarbonate solution are placed in 100 ml. bottles. To these solutions is added the inhibitor in various known concentrations. 50 ml. samples of a 0.02 M CaCl2 solution are then added.
A total hardness determination is then made on the 50-50 mixture utilizing the well known Schwarzenbach titration. The samples are placed in a water bath and heated at 180° F. 10 ml. samples are taken from each bottle at 2 and 4 hour periods. These samples are filtered through millipore filters and the total hardness of the filtrates are determined by titration.

[2] = powerful sequesterants; background statement; cited from earlier work

| SMILES | % Inhibition (calcium scale inhibition) ([1]; 100 ppm) [%] | % Inhibition (calcium scale inhibition) ([1]; 50 ppm) [%] | % Inhibition (calcium scale inhibition) ([1]; 10 ppm) [%] | also measured |
| --- | --- | --- | --- | --- |
| O=P(O)(O)CN(CCCS(=O)(=O)O)C1CCCCC1 [Example 1] | 86 | – | – | – |
| CCCCCCCCN(CCCS(=O)(=O)O)CP(=O)(O)O [Example 4] | 24 | – | – | % Inhibition (calcium scale inhibition) ([1]; 200 ppm): 60% |
| O=P(O)(O)CN(CCCS(=O)(=O)O)CCN(CCCS(=O)(=O)O)CP(=O)(O)O [Example 11] | 100 | 95 | – | – |
| O=P(O)(O)CN(CCCS(=O)(=O)O)CCN(CCN(CP(=O)(O)O)CP(=O)(O)O)CP(=O)(O)O [Example 14] | 100 | – | 66 | – |
| O=P(O)(O)CN(CCCS(=O)(=O)O)CCN(CCN(CCCS(=O)(=O)O)CP(=O)(O)O)CP(=O)(O)O [Example 15] | – | 95 | 42 | – |
| O=C(O)CN(CCN(CC(=O)O)CC(=O)O)CC(=O)O [ethylenediamine tetracetic acid salts, ethylenediamine tetracetic acid] | – | – | – | threshold activities [2]: no threshold activities |
